Literature values as cited in US5221745A, “Psychotropic piperidinylmethyl benzodioxans” (American Home Products Corp., priority 1992, dated 1993).

How the values were obtained:
5-HT1A receptor = conditions: Fozard et al. 1987
[1] = biological target: T1, serotonin 5-HT1A receptor (Rattus norvegicus, UniProt P19327); conditions: standard for anxiolytic activity
T1 construct: following the procedure of Hall et al., J. Neurochem; 44, 1685 (1985); from tissue
T1 sequence (P19327 1-422): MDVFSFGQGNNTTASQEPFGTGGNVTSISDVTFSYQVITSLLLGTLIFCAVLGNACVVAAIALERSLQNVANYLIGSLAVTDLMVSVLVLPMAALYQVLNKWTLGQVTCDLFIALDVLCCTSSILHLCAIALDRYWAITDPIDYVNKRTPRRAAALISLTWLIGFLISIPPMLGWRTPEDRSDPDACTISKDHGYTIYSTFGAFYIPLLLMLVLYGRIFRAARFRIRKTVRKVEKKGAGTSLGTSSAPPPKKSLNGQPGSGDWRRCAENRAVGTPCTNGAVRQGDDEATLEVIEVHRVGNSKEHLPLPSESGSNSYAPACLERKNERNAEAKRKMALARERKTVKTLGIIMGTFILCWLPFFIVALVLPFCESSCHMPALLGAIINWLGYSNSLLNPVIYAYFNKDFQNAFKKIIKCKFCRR

Row | ligand character for 5-HT1A receptors (in words) (5-HT1A receptor) | SMILES | affinity for the 5-HT1A serotonin receptor subtype (in words) [1]
1 | selective and stereospecific | O=C1CC2(CCCC2)CC(=O)N1CCCCNCC1COc2ccccc2O1 (centres unmarked) [MDL 72832, 8-[4-(1,4-benzodioxan-2-ylmethylamino)butyl]-8-azaspiro[4.5]decane-7,9-dione] | –
2 | – | O=C1CC2(CCCC2)CC(=O)N1CCCCN1CCN(c2ncccn2)CC1 [buspirone] | potent affinity
